In PubChem BioAssay (NCI) one finds TGI and GI50 data, which are given here for 27 compounds.

Holding throughout (assay): NCI anticancer screen, dose series, 48 h
In assay [1] the test system is ACHN renal.
In assay [2] the test system is CAKI-1 renal.
Assay [3] relates to EKVX NSCLC.
Assay [4] relates to HCC-2998 colon.
In assay [5] the test system is HOP-92 NSCLC.
Assay [6] deals with LOX IMVI melanoma.
The test system of assay [7] is OVCAR-8 ovarian.
Assay [8] has as its system SR leukemia.
Assay [9] deals with OVCAR-4 ovarian.
In assay [10] the test system is PC-3 prostate.

Each structure is given as a SMILES string.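 48-hour exposure; five concentrations; linearly interpolated endpoints. GI50 = concentration required for 50% inhibition of growth. TGI marks complete inhibition of growth.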

Regarding `CC(O)CN1C(=O)NC(Cc2ccccc2)C1=O` (centres undefined), the TGI in [1], in assay [2], in assay [3], in assay [4], in [5] and in assay [6] was greater than 100 µM each time. Also, the TGI in [7] and in assay [8] was greater than 100 µM each time.
On to `COc1cc(/C=C\c2ccc(O)cc2)cc(OC)c1OC`, for which the TGI in [1] was greater than 100 µM; in assay [2] it was greater than 100 µM; in assay [3], greater than 100 µM; in [4], greater than 79 µM; in assay [6], greater than 100 µM; in [9], greater than 100 µM. Besides, in [7], the TGI is greater than 100 µM.
For `Cc1ccc(-c2nc(C(Cl)Cl)n3nc(-c4ccccc4)cc3n2)cc1`, the GI50 in assay [1] is 0.302 µM; in [2] it was 0.31 µM; in [5] it was 0.281 µM; in assay [6] it was greater than 100 µM; in assay [9], 0.68 µM; in [7] it was 0.512 µM. For the same compound, the TGI in [1] is 0.93 µM; in assay [2] it was 1.49 µM; in [5], 1.35 µM; in assay [6], greater than 100 µM; in [9], 3.99 µM; in [7], greater than 100 µM.
As to `Clc1cc(Cl)c2c(Cl)cc(Cl)c3c2c1N=S=N3`, the TGI in assay [2], in [3], in assay [4], in assay [5], in [6] and in [9] was greater than 100 µM each time. Besides, the TGI in assay [7] is greater than 100 µM.
`CC1(C)OC(=O)C=C([O-])O1.CC1(C)OC(=O)C=C([O-])O1.O=c1c(O)c(-c2ccc([O-])cc2[O-])oc2cc(O)cc(O)c12.[Ti+4]`: the TGI in assay [1], in assay [2], in assay [3], in [6], in [9] and in assay [7] was greater than 100 µM each time.
For the compound `O=C(N/N=C/c1ccc(Cl)cc1Cl)c1ccccc1Nc1cccc(C(F)(F)F)c1`, the GI50 in assay [1] is 3.77 µM; in assay [2], 3.45 µM; in [3], 12.2 µM; in [4], 8.52 µM; in assay [5], 1.5 µM; in assay [6], 7.26 µM. In addition, the results for the GI50 in assay [9], in assay [7] and in assay [10] were 2.94 µM, 2.47 µM and 2.4 µM, respectively. Moreover, the TGI in assay [1] is 16.5 µM; in assay [2], 14.4 µM; in [3], 80.1 µM; in assay [4], greater than 100 µM; in [5], 3.57 µM; in assay [6], 63.7 µM. Also, the TGI worked out at 12.4 µM in [9], 5.99 µM in assay [7] and 8.82 µM in [10].
As to `C=C1CC(COc2cc(Cl)nc(N)n2)C1`, the GI50 is 14.5 µM in assay [1]; 22.8 µM in [2]; 25.6 µM in [3]; 23.1 µM in assay [5]; 67.8 µM in assay [9]; 43.7 µM in assay [7]. Further, the GI50 in assay [8] was 34.8 µM. The TGI in [1] turned out to be 74.1 µM; in [2], 89.3 µM; in assay [5], 71.5 µM.
On to `C=C1C(=O)O[C@H]2[C@H]1CC/C(COC(=O)c1cc3cc(OC)ccc3[nH]1)=C\CC[C@@]1(C)O[C@@H]21`, for which the GI50 in assay [1] was 0.817 µM; in assay [2], 1.71 µM; in assay [3] it was 1.5 µM; in assay [4], 1.54 µM; in assay [5] it was 0.445 µM; in [6] it was 0.3 µM. For the same compound, the GI50 in assay [9] is 1.63 µM; in assay [7], 1.58 µM; in [10], 1.83 µM. Besides, the TGI in [1] was 2.12 µM; in [2], 3.48 µM; in assay [3], 3.1 µM; in [4], 2.91 µM; in assay [5], 1.83 µM; in [6], 1.34 µM. Besides, the figures for the TGI in assay [9], in [7] and in assay [10] were 3.24 µM, 3.37 µM and 3.65 µM, respectively.
Consider `O=C(Nc1ccc(S(=O)(=O)N[C@@H](C(=O)O)c2ccccc2)cc1)c1ccc(F)cc1`, for which the TGI in assay [1], in assay [2], in [3], in assay [4], in assay [5] and in [6] was greater than 100 µM throughout. Further, the TGI in [9] and in assay [7] was greater than 100 µM throughout.
On to `CN(C)C(=S)/N=c1\ss/c(=N\S(=O)(=O)c2ccccc2)n1-c1ccccc1`, for which the TGI in assay [1] is greater than 100 µM; in assay [2], greater than 100 µM; in assay [3], greater than 100 µM; in [4], greater than 100 µM; in assay [5] it was 67 µM; in [6] it was greater than 100 µM. Also, the TGI in [9] and in assay [7] was greater than 100 µM each time.
For `CCOc1cccc2nc3cccc(C(=O)NCCN(C)C)c3nc12`, the TGI is 3.01 µM in assay [1]; 11.6 µM in assay [3]; 3.53 µM in [4]; 2.11 µM in assay [6]; 8.58 µM in assay [9]; greater than 20.4 µM in assay [7]. The TGI in [8] is 26.1 µM.
As to `COC(=O)NC/C=C\c1nc(CC/C=C\C(=O)OC2CC3CC(=O)O[C@@H](/C=C/CC(C)C)C[C@@H]4CCC(C)C(C[C@@H](OC)CC(C2)O3)O4)co1` (some centres undefined), the GI50 in [1] is less than 0.01 µM; in assay [2], less than 0.01 µM; in assay [3], less than 0.01 µM; in [4] it was less than 0.01 µM; in assay [5] it was less than 0.01 µM; in [6], 0.091 µM. The GI50 was 53 µM in assay [7] and less than 0.01 µM in assay [10]. The TGI was greater than 100 µM in assay [1]; 70.6 µM in assay [2]; greater than 100 µM in assay [3]; 19 µM in assay [4]; 2.38 µM in assay [5]; 61.9 µM in assay [6]. For the same compound, the TGI in assay [7] and in assay [10] was greater than 100 µM in each case.
Take `N#Cc1c(N)c(C(=O)O)nn(-c2cccc(C(F)(F)F)c2)c1=O`: the TGI in assay [1], in assay [2], in assay [3], in assay [5], in assay [6] and in assay [7] was greater than 100 µM in each case. In assay [8], the TGI was greater than 100 µM.
Consider `CC1CCCC(C(=O)/C(=C/c2cccc(Cl)c2)C(=O)C(=O)O)C1` (centres undefined), for which the TGI in [1] was greater than 100 µM; in assay [2], greater than 100 µM; in assay [3], greater than 100 µM; in [4], 25.4 µM; in assay [5] it was greater than 100 µM; in [9] it was greater than 100 µM. For the same compound, the TGI in assay [7] came to 40 µM.
Consider `COc1ccc(C(=O)C(C(=O)CCC(=O)Nc2cccc(C(F)(F)F)c2)c2ccccc2)cc1` (centres undefined), for which the TGI in assay [1], in [2], in assay [3], in [4], in [5] and in assay [9] was greater than 100 µM each time. Moreover, the TGI in assay [7] and in assay [8] was greater than 100 µM in each case.
For the compound `CC(=O)c1c(C)n([O-])c2cc(C)c(C)cc2[n+]1=O`, the TGI in assay [1], in assay [2], in [3], in [4], in assay [6] and in assay [9] was greater than 100 µM each time. The same compound showed a TGI in assay [7] greater than 100 µM.
Regarding `Clc1ccc(CNc2nc3ccccc3nc2-c2cccs2)c(Cl)c1`, the TGI is greater than 100 µM in assay [1]; greater than 100 µM in assay [3]; greater than 100 µM in assay [4]; 76.6 µM in [5]; greater than 100 µM in assay [7]; greater than 100 µM in assay [8].
With `Oc1c2c(c(O)c3ccccc13)=N[C@@H](c1ccccc1)[C@H](c1ccccc1)N=2`, the TGI in [1], in assay [2], in assay [4], in assay [5], in assay [6] and in assay [9] was greater than 100 µM throughout. The TGI in [7] and in assay [8] was greater than 100 µM throughout.
On to `CN1CCN(C)C1c1cccc(C2N(C)CCN2C)c1`, for which the TGI in assay [1], in assay [4], in [5], in assay [6] and in [9] was greater than 100 µM in each case.
Consider `CC/C=C\C/C=C\C1CC(=O)NCCCNCCCCN1` (centres undefined), for which the TGI in assay [2], in assay [3], in [4], in [5], in [6] and in [9] was greater than 100 µM in each case. Also, the TGI in assay [7] and in [8] was greater than 100 µM in each case.
`C=C(COC(C)=O)CC(/C=C(\C)CCC=C(C)C)OC(C)=O` (centres undefined): the TGI in [1], in [3], in assay [4], in [5], in assay [6] and in assay [9] was greater than 100 µM in each case. The TGI in assay [7] is greater than 100 µM.
With `C=CC(=O)N1CCN(c2ncnc3c(F)c(-c4c(O)cccc4F)c(Cl)cc23)CC1`, the GI50 in [1] was 4.84 µM; in assay [2], 12.6 µM; in assay [3] it was 15.1 µM; in assay [4], 17.5 µM; in assay [5], 12.8 µM; in [6] it was 12.6 µM. Moreover, the figures for the GI50 in assay [9], in assay [7] and in assay [10] were 14.9 µM, 19.3 µM and 7.29 µM, respectively. The TGI in [1] was 17.7 µM; in [2], 25.8 µM; in assay [3], 28.9 µM; in assay [4], 32.7 µM; in assay [5], 33.6 µM; in assay [6] it was 31 µM. Further, the TGI in [9] came to 43.4 µM; in assay [7], 67 µM; in assay [10], 30.3 µM.
`CC(=O)OCCOCBr`: the TGI in assay [1], in [2], in [3], in assay [5], in assay [6] and in [9] was greater than 100 µM throughout. For the same compound, the TGI in [7] was greater than 100 µM.
`COc1cc2c3c(n(CCCN4CCC(N)CC4)c(=O)c2cc1OC)-c1cc2c(cc1C3=O)OCO2`: the GI50 in assay [1] is 0.336 µM; in assay [2] it was 0.311 µM; in [3], 1.31 µM; in assay [4], 0.143 µM; in assay [5], 0.202 µM; in [6], 0.298 µM. For the same compound, the values for the GI50 in assay [9], in assay [7] and in [10] were 0.211 µM, 0.368 µM and 0.302 µM, respectively. Further, the TGI in [1] came to 1.24 µM; in assay [2], 2.99 µM; in assay [3] it was 3.87 µM; in [4], 3.52 µM; in assay [5], 1.5 µM; in [6] it was 1.02 µM. The TGI in assay [9] is 1.27 µM; in [7] it was 1.51 µM; in assay [10], 2.11 µM.
On to `NC1=NC(=O)C(CC(=O)Nc2ccc([N+](=O)[O-])cc2[N+](=O)[O-])S1` (centres undefined), for which the TGI in [1] is greater than 100 µM; in assay [3] it was greater than 100 µM; in [4], greater than 100 µM; in assay [5], 89.4 µM; in assay [6], greater than 100 µM; in [9], greater than 100 µM. In assay [7], this compound had a TGI greater than 100 µM.
Take `C=C(C)[C@@H]1CC[C@@]2(C(=O)O)CC[C@]3(C)C(CCC4[C@@]5(C)CCC(OS(=O)(=O)c6ccccc6)C(C)(C)C5CC[C@]43C)C12` (some centres undefined): the GI50 in assay [1] is 4.42 µM; in [2], 2.36 µM; in [3] it was 2.58 µM; in assay [4] it was 2.28 µM; in assay [5] it was 2.47 µM; in assay [6] it was 5.99 µM. Moreover, the GI50 was 4.49 µM in [9], 5.8 µM in [7] and 1.5 µM in assay [10]. Besides, the TGI in [1] was 20.6 µM; in assay [2] it was 9.89 µM; in assay [3], 19.3 µM; in [4], 10.5 µM; in [5], 16.2 µM; in [6], 18.6 µM. The TGI was determined as 28.5 µM in [9], 88.7 µM in assay [7] and 35.8 µM in assay [10].
For `COc1ccc(C2=NC(C)(C)CO2)cc1`, the TGI in assay [1], in [2], in [3], in assay [5], in [6] and in assay [9] was greater than 100 µM throughout. Further, the TGI in assay [7] and in [8] was greater than 100 µM in each case.
